Test results taken from patent US20210087206A1, “MACROCYCLIC KINASE INHIBITORS AND THEIR USE” (TURNING POINT THERAPEUTICS, INC., priority 2017, published 2021).

Tests used:
KG-1 cell (OP2-FGFR1) = assay: Cell proliferation assay (CellTiter-Glo); format: cell-based; settings: Homo sapiens, anti-cell proliferation, 72 hours
Method in brief: (§1)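 Cells seeded 24 h, then exposed to compounds for 72 h at 37° C., 5% CO2. Proliferation read by CellTiter-Glo luminescent ATP detection; IC50 from dose-response fits.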

KM12 (TPM3-TRKA) = assay: Cell proliferation assay (CellTiter-Glo); format: cell-based; settings: Homo sapiens, anti-cell proliferation, 72 hours
Method in brief: as §1

FGFR2 = molecular target: T1, FGFR2 (Homo sapiens, UniProt P21802); assay: Biochemical kinase assay (Reaction Biology, 33P ATP); settings: 10 μM ATP
T1 construct: purchased Reaction Biology Corporation
T1 sequence (P21802 22-821): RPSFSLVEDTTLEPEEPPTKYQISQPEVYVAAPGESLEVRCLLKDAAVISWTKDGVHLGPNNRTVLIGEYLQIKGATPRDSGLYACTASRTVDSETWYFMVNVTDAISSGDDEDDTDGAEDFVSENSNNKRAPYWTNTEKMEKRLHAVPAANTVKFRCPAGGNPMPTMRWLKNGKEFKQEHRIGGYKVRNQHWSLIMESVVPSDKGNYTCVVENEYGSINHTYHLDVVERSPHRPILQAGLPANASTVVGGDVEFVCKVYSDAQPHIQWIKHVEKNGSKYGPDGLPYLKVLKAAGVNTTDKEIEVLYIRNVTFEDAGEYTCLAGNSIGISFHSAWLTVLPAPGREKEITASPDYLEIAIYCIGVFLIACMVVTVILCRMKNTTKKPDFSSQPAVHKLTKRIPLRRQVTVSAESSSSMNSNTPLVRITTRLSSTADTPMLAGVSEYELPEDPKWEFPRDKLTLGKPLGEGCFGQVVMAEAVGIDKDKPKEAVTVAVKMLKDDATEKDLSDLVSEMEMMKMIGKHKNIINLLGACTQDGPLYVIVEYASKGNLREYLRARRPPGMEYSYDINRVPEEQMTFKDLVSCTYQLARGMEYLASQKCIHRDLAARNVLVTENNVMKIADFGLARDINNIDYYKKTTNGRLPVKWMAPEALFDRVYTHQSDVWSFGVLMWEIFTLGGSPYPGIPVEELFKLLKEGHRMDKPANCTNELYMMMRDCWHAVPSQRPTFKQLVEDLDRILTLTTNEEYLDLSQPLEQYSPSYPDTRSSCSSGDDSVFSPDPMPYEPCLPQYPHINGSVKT
Description: (§2) Biochemical Kinase Assay Method
(§3) The biochemical kinase assay was performed at Reaction Biology Corporation (www.reactionbiology.com, Malvern, Pa.) following the procedures described in the reference (Anastassiadis T, et al Nat Biotechnol. 2011, 29, 1039). Specific kinase/substrate pairs along with required cofactors were prepared in reaction buffer; 20 mM Hepes pH 7.5, 10 mM MgC2, 1 mM EGTA, 0.02% Brij35, 0.02 mg/ml BSA, 0.1 mM Na3VO4, 2 mM DTT, 1% DMSO. Compounds were delivered into the reaction, followed ˜20 min later by addition of a mixture of ATP (Sigma, St. Louis Mo.) and ^33P ATP (Perkin Elmer, Waltham Mass.) to a final concentration of 10 μM. Reactions were carried out at room temperature for 120 min, followed by spotting of the reactions onto P81 ion exchange filter paper (Whatman Inc., Piscataway, N.J.). Unbound phosphate was removed by extensive washing of filters in 0.75% phosphoric acid. […] IC50 values and curve fits were obtained using Prism (GraphPad Software).

ROS1 = molecular target: T2, ROS1 (Homo sapiens, UniProt P08922); assay: as above; settings: 10 μM ATP
T2 construct: purchased Reaction Biology Corporation
Description: as §2, §3

ALK (L1196M) = molecular target: T3, ALK (L1196M) (Homo sapiens, UniProt Q9UM73, L1196M); assay: as above; settings: 10 μM ATP
T3 construct: purchased Reaction Biology Corporation
T3 sequence (Q9UM73 19-1620 L1196M): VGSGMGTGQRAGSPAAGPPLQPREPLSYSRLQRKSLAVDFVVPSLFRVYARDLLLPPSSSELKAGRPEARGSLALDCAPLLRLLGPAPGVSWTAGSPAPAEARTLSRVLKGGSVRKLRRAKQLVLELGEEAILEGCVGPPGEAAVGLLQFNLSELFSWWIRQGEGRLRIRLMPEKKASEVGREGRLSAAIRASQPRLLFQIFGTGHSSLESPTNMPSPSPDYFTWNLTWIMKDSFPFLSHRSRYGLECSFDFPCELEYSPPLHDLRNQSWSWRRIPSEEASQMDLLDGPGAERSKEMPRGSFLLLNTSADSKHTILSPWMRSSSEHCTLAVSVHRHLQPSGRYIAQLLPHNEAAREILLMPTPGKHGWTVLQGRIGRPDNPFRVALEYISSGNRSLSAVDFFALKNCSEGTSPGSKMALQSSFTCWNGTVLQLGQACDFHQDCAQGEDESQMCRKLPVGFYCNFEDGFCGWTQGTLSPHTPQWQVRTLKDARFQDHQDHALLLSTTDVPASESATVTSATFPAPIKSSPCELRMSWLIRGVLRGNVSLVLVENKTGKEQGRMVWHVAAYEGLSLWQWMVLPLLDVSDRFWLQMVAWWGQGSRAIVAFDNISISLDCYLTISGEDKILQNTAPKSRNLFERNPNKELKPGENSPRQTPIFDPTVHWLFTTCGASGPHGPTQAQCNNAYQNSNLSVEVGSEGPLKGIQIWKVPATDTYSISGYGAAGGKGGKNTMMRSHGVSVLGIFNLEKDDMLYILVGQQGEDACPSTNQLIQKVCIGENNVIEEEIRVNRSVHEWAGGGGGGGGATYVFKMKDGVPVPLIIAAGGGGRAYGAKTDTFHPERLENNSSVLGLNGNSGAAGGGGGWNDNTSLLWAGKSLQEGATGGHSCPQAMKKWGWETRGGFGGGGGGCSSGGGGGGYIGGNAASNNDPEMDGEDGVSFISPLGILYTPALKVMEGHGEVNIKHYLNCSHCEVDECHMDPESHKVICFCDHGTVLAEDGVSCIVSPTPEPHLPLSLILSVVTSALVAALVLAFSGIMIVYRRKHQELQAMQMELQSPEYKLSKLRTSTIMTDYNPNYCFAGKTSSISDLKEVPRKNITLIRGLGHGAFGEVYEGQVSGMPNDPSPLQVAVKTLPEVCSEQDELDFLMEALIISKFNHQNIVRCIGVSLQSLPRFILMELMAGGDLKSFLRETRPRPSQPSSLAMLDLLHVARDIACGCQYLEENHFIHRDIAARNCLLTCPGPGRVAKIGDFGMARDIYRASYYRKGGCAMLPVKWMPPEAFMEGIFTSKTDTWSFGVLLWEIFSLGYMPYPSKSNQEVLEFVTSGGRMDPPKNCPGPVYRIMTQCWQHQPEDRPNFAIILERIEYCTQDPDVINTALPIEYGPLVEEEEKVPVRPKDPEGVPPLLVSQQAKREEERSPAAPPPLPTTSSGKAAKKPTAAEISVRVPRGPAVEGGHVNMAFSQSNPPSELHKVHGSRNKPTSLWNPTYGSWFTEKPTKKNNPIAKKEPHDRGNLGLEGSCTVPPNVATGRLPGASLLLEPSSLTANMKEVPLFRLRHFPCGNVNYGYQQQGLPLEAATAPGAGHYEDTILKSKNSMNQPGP
Description: as §2, §3

FGFR1 = molecular target: T4, FGFR1 (Homo sapiens, UniProt P11362); assay: as above; settings: 10 μM ATP
T4 construct: purchased Reaction Biology Corporation
T4 sequence (P11362 22-822): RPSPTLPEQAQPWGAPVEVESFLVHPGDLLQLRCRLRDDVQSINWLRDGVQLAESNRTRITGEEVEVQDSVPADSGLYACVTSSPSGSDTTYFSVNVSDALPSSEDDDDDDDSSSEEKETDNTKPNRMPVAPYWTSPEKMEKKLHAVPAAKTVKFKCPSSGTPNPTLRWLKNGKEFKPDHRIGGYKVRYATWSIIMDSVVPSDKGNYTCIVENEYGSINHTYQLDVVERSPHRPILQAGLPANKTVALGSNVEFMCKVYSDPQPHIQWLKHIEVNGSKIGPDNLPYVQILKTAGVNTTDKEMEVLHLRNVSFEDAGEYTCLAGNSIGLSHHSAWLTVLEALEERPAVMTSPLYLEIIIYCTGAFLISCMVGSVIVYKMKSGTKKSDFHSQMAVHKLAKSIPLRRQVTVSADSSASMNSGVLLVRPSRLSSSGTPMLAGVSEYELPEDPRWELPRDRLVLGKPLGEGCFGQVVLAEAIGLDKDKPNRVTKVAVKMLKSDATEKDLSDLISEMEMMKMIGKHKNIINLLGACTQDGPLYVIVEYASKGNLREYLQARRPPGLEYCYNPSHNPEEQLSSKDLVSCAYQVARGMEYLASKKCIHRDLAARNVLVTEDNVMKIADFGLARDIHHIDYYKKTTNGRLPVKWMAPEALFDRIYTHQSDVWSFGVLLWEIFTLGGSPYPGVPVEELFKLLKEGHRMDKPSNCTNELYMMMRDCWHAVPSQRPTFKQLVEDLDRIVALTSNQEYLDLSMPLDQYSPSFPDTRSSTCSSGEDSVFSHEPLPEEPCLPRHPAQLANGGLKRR
Description: as §2, §3

FGFR1(V561M) = molecular target: T5, FGFR1(V561M) (Homo sapiens, UniProt P11362, V561M); assay: as above; settings: 10 μM ATP
T5 construct: purchased Reaction Biology Corporation
T5 sequence (P11362 22-822 V561M): as the sequence (P11362 22-822) above, with V540M counted along it
Description: as §2, §3

FGFR3 = molecular target: T6, FGFR3 (Homo sapiens, UniProt P22607); assay: as above; settings: 10 μM ATP
T6 construct: purchased Reaction Biology Corporation
Description: as §2, §3

ROS1 (G2032R) = molecular target: T7, ROS1 (G2032R) (Homo sapiens, UniProt P08922, G2032R); assay: as above; settings: 10 μM ATP
T7 construct: purchased Reaction Biology Corporation
Description: as §2, §3

ALK = molecular target: T8, ALK (Homo sapiens, UniProt Q9UM73); assay: as above; settings: 10 μM ATP
T8 construct: purchased Reaction Biology Corporation
T8 sequence (Q9UM73 19-1620): as the sequence (Q9UM73 19-1620 L1196M) above, with M1178L counted along it
Description: as §2, §3

ALK (G1202R) = molecular target: T9, ALK (G1202R) (Homo sapiens, UniProt Q9UM73, G1202R); assay: as above; settings: 10 μM ATP
T9 construct: purchased Reaction Biology Corporation
T9 sequence (Q9UM73 19-1620 G1202R): as the sequence (Q9UM73 19-1620 L1196M) above, with M1178L, G1184R counted along it
Description: as §2, §3

FGFR4 = molecular target: T10, FGFR4 (Homo sapiens, UniProt P22455); assay: as above; settings: 10 μM ATP
T10 construct: purchased Reaction Biology Corporation
Description: as §2, §3

BaF3 EML4-ALK = molecular target: T11, BaF3 EML4-ALK (Homo sapiens, UniProt Q9UM73); assay: Cell proliferation assay (CellTiter-Glo); format: cell-based; settings: anti-cell proliferation, 72 hours
T11 construct: The EML4-ALK gene (variant 1) was synthesized at GenScript and cloned into pCDH-CMV-MCS-EF1-Puro plasmid (System Biosciences, Inc); fused on or other part: EML4 N-terminal part (variant 1: exons 1-13, with the coiled-coil that oligomerises the fusion) fused to the intracellular part of ALK, which contains the kinase domain; Q9HC35 (Echinoderm microtubule-associated protein-like 4)
T11 sequence (Q9UM73 whole entry, stated change not applied, the tested form may be a part): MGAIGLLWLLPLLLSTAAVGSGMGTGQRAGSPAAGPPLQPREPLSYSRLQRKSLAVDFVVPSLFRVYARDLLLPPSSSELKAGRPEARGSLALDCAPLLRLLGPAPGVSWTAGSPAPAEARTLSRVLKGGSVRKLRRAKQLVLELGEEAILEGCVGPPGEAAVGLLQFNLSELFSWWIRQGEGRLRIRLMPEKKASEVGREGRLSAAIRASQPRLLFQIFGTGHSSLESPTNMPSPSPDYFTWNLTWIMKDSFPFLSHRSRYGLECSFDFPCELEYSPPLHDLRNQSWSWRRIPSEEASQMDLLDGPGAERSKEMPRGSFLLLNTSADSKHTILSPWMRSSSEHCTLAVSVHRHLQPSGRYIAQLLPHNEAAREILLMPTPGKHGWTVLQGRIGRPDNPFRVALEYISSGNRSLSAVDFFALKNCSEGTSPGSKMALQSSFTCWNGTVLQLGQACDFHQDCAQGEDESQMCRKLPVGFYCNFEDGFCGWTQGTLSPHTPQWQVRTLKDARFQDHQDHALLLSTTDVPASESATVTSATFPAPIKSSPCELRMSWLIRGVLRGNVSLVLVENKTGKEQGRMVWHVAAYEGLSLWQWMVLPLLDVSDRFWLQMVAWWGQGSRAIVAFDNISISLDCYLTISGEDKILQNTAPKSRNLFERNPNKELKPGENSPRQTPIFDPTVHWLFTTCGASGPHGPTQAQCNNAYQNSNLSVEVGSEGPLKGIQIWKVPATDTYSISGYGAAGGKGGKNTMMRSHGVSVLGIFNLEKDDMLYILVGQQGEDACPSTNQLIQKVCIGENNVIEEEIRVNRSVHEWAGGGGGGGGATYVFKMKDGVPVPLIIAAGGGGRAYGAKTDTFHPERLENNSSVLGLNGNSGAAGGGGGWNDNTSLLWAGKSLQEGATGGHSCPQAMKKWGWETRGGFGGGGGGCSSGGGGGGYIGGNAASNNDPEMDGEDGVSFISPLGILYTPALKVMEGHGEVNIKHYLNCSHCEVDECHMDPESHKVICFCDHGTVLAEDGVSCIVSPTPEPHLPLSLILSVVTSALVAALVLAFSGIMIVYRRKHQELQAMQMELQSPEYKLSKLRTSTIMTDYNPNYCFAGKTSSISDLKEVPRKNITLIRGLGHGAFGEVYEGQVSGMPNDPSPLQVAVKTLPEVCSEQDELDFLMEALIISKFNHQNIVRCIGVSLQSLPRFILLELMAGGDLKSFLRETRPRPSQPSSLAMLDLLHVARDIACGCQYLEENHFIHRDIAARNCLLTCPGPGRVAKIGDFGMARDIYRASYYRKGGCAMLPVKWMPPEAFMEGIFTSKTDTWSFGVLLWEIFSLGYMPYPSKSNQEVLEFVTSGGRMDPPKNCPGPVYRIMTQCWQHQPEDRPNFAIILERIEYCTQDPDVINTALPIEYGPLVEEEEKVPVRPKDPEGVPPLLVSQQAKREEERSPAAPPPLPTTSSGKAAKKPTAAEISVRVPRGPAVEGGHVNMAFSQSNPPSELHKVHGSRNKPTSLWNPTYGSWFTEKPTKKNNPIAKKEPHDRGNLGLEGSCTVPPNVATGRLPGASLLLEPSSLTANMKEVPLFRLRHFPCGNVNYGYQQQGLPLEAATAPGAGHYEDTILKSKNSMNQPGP
Method in brief: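 Ba/F3 cells were lentivirally transduced with EML4-ALK variant 1 and selected for puromycin resistance and IL-3-independent growth. Proliferation was measured by CellTiter-Glo ATP luminescence to give IC50.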

[1] = amide bond; 13-membered ring; 3 steps

| Molecule | IC50 (KG-1 cell (OP2-FGFR1)) | IC50 (KM12 (TPM3-TRKA)) | IC50 (BaF3 EML4-ALK) | also measured |
| --- | --- | --- | --- | --- |
| C[C@@H]1COc2cn3ncc4c3nc2N1Cc1cc(F)cc(F)c1O[C@@H](C)CNC4=O [Compound 7, (4R,12S)-8,10-difluoro-4,12-dimethyl-3,4,13,14-tetrahydro-6H-18,1-(metheno)[1,4]oxazino[3,4-i]pyrazolo[4,3-f][1,4,8,10]benzoxatriazacyclotridecin-15(12H)-one] | 0.145 µM | 0.0002 µM | 0.0186 µM | IC50 (FGFR2): 14.7 nM; IC50 (ROS1): 0.111 nM; IC50 (ALK (L1196M)): 0.358 nM; IC50 (FGFR1): 53 nM; IC50 (FGFR1(V561M)): 137 nM; IC50 (FGFR3): 30.5 nM; IC50 (ROS1 (G2032R)): 0.678 nM; IC50 (ALK): 0.853 nM; IC50 (ALK (G1202R)): 1.25 nM; IC50 (FGFR4): 88.4 nM |
| (5R,13S)-9-fluoro-5,13-dimethyl-4,5,14,15-tetrahydro-3H,7H-19,1-(metheno)[1,4]oxazepino[3,4-i]pyrazolo[4,3-f]pyrido[3,2-l][1,4,8,10]oxatriazacyclotridecin-16(13H)-one | – | – | – | ring closure, isolated yield [1]: 79% |
| (4R,13R)-8-fluoro-4,13-dimethyl-3,4,13,14-tetrahydro-6H-18,1-(metheno)[1,4]oxazino[3,4-i]pyrazolo[4,3-f]pyrido[3,2-l][1,4,8,10]oxatriazacyclotridecin-15(12H)-one | – | – | – | ring closure, isolated yield [1]: 86% |
| CC[C@@H]1COc2cn3ncc4c3nc2N1Cc1cc(F)cnc1OCC(C)(C)CNC4=O [Compound 76, (16R)-16-ethyl-12-fluoro-7,7-dimethyl-5,6,7,8,16,17-hexahydro-4H,14H-1,19-(metheno)[1,4]-oxazino[4,3-e]pyrazolo[3,4-h]-pyrido[2,3-b][1,5,7,11]oxatriaza-cyclotetradecin-4-one] | 0.0008 µM | < 0.0002 µM | 0.0353 µM | – |
| C[C@@H]1COc2cn3ncc4c3nc2N1Cc1cc(F)cnc1OCC1(CC(F)(F)C1)NC4=O [Compound 50, (4′R)-3,3,8′-trifIuoro-4′-methyl-3′H,4′H,6′H,12′H,14′H,15′H-spiro[cyclobutane-1,13′-[2,11]-dioxa[5,10,14,17,18,19]hexaaza-[18,1](metheno)[1,4]oxazino[3,4-i][4,3-f]pyrido[3,2-l][1,4,8,10]-oxatriazacyclotridecin]-15′-one] | 0.412 µM | < 0.0002 µM | 0.583 µM | – |
| CC[C@@H]1COc2cn3ncc4c3nc2N1Cc1cc(F)cnc1O[C@@H](C)CNC4=O [Compound 10, (4R,12S)-4-ethyl-8-fluoro-12-methyl-3,4,13,14-tetrahydro-6H-18,1-(metheno)[1,4]oxazino[3,4-i]pyrazolo[4,3-f]pyrido[3,2-l] [1,4,8,10]oxatriazacyclotridecin-15(12H)-one] | 0.0631 µM | 0.0002 µM | 0.0712 µM | – |
| C[C@@H]1COc2ncc(F)cc2CN2c3nc4c(cnn4cc3OCC23CC3)C(=O)N1 [Compound 28, (13′R)-8′-fluoro-13′-methyl-3′H,6′H,12′H,14′H,15′H-spiro-[cyclopropane-1,4′-[2,11]dioxa-[5,10,14,17,18,19]hexaaza[18,1]-(metheno)[1,4]oxazino[3,4-i]-pyrazolo[4,3-f]pyrido[3,2-l] [1,4,8,10]oxatriazacyclotridecin]-15′-one] | 0.786 µM | < 0.0002 µM | 0.18 µM | – |
| C[C@H]1CNC(=O)c2cnn3cc4c(nc23)N(Cc2cc(F)cnc2O1)C[C@@H](F)CO4 [Compound 93, (4R,13S)-4,9-difluoro-13-methyl-4,5,14,15-tetrahydro-3H,7H-19,1-(metheno)[1,4]oxazepino[3,4-i]-pyrazolo[4,3-f]pyrido[3,2-l] [1,4,8,10]oxatriazacyclotridecin-16(13H)-one] | > 10 µM | 0.189 µM | > 10 µM | – |
